Data on 14 compounds can be found in patent US9061966B2, “Cyclopropylamine inhibitors of oxidases” (ORYZON GENOMICS S.A., priority 2010, dated 2015).

What is called Ki is the dissociation constant of the complex between target and ligand, obtained from inhibition or displacement.

Structures can show the parent of a compound that is named as a salt.

Type in all cases: biochemical
Experiment [1] has as its target T1, Human recombinant monoamine oxidase MAO-B (Homo sapiens, UniProt P27338).
T1 construct: purchased Sigma Aldrich
T1 sequence (P27338 1-520): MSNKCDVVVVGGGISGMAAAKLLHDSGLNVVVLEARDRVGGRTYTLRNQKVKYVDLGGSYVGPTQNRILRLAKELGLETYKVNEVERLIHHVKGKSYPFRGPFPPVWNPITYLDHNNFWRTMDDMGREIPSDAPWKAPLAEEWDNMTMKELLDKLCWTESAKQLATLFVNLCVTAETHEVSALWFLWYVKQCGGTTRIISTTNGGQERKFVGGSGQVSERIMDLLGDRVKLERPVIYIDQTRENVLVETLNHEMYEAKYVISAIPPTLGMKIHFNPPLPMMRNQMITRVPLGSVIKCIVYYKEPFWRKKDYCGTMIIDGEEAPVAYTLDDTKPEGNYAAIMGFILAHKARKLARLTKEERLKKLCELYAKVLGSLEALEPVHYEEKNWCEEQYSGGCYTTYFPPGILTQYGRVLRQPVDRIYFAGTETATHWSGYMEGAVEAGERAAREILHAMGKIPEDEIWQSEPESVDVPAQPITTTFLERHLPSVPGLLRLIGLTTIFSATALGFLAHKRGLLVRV
Kind of experiment: Monoamine oxidase assay, kynuramine fluorescence, MAO-B. The note with it: Ki (IC50) determined at Vmax/2; range class. An excerpt: (§1) Human recombinant monoamine oxidase proteins MAO-A and MAO-B were purchased from Sigma Aldrich. MAOs catalyze the oxidative deamination of primary, secondary and tertiary amines. In order to monitor MAO enzymatic activities and/or their inhibition rate by inhibitor(s) of interest, a fluorescence-based (inhibitor)-screening assay was set up. 3-(2-Aminophenyl)-3-oxopropanamine (kynuramine dihydrobromide, Sigma Aldrich), a non fluorescent compound was chosen as a substrate. Kynuramine is a non-specific substrate for both MAO-A and MAO-B activities. While undergoing oxidative deamination by MAO activities, kynuramine is converted into 4-hydroxyquinoline (4-HQ), a resulting fluorescent product.
(§2) The monoamine oxidase activity was estimated by measuring the conversion of kynuramine into 4-hydroxyquinoline. Assays were conducted in 96-well black plates with clear bottom (Corning) in a final volume of 100 μL. The assay buffer was 100 mM HEPES, pH 7.5. Each experiment was performed in triplicate within the same experiment.
(§3) Briefly, a fixed amount of MAO (0.25 μg for MAO-A and 0.5 μg for MAO-B) was incubated on ice for 15 minutes in the reaction buffer, in the absence and/or in the presence of various concentrations of inhibitor (e.g., from 0 to 50 μM, depending on the inhibitor strength). Tranylcypromine (Biomol International) was used as a control for inhibition.
(§4) After leaving the enzyme(s) interacting with the inhibitor, 60 to 90 μM of kynuramine was added to each reaction for MAO-B and MAO-A assay respectively, and the reaction was left for 1 hour at 37° C. in the dark. The oxidative deamination of the substrate was stopped by adding 50 μL (v/v) of NaOH 2N. The conversion of kynuramine to 4-hydroxyquinoline, was monitored by fluorescence (excitation at 320 nm, emission at 360 nm) using a microplate reader (Infinite 200, Tecan). Arbitrary units were used to measure levels of fluorescence produced in the absence and/or in the presence of inhibitor.
(§5) The maximum of oxidative deamination activity was obtained by measuring the amount of 4-hydroxyquinoline formed from kynuramine deamination in the absence of inhibitor and corrected for background fluorescence in the absence of MAO enzymes. The Ki (IC50) of each inhibitor was determined at Vmax/2.

Experiment [2] addresses T2, Human recombinant monoamine oxidase MAO-A (Homo sapiens, UniProt P21397).
T2 construct: purchased Sigma Aldrich
T2 sequence (P21397 1-527): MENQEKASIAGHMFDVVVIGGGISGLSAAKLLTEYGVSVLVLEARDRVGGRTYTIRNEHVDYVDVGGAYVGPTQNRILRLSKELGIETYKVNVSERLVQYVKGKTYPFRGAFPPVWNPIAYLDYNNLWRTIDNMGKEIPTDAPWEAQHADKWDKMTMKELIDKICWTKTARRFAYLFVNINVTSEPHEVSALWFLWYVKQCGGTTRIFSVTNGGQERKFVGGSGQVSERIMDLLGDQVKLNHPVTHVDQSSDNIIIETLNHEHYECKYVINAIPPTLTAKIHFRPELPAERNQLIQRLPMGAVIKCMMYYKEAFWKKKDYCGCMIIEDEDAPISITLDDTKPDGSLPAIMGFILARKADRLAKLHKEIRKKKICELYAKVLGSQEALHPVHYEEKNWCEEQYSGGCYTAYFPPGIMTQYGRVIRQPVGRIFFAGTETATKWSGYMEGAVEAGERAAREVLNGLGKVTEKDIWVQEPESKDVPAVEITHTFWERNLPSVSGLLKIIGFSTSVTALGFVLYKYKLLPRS
Kind of experiment: Monoamine oxidase assay, kynuramine fluorescence, MAO-A. The note with it: Ki (IC50) determined at Vmax/2; range class.
Excerpt: as §1, §2, §3, §4, §5

The target in experiment [3] is T3, Human recombinant LSD1 protein (Homo sapiens, UniProt O60341).
T3 construct: purchased BPS Bioscience Inc
Kind of experiment: Inhibition of LSD1 (Amplex Red peroxide/peroxidase-coupled demethylase assay, di-methylated H3-K4 peptide substrate). The settings on record: Ki (IC50) estimated at half of the maximum activity; range class. The source says: The compounds of the invention can be tested for their ability to inhibit LSD1. The ability of the compounds of the invention to inhibit LSD1 can be tested as follows. Human recombinant LSD1 protein was purchased from BPS Bioscience Inc. In order to monitor LSD1 enzymatic activity and/or its inhibition rate by our inhibitor(s) of interest, di-methylated H3-K4 peptide (Millipore) was chosen as a substrate. The demethylase activity was estimated, under aerobic conditions, by measuring the release of H2O2 produced during the catalytic process, using the Amplex® Red peroxide/peroxidase-coupled assay kit (Invitrogen).
Briefly, a fixed amount of LSD1 was incubated on ice for 15 minutes, in the absence and/or in the presence of various concentrations of inhibitor (e.g., from 0 to 75 μM, depending on the inhibitor strength). Tranylcypromine (Biomol International) was used as a control for inhibition. Within the experiment, each concentration of inhibitor was tested in triplicate. After leaving the enzyme interacting with the inhibitor, 12.5 μM of di-methylated H3-K4 peptide was added to each reaction and the experiment was left for 1 hour at 37° C. in the dark. The enzymatic reactions were set up in a 50 mM sodium phosphate, pH 7.4 buffer. At the end of the incubation, Amplex® Red reagent and horseradish peroxidase (HPR) solution were added to the reaction according to the recommendations provided by the supplier (Invitrogen), and left to incubate for 30 extra minutes at room temperature in the dark. A 1 μM H2O2 solution was used as a control of the kit efficiency. The conversion of the Amplex® Red reagent to resorufin due to the presence of H2O2 in the assay, was monitored by fluorescence (excitation at 540 nm, emission at 590 nm) using a microplate reader (Infinite 200, Tecan). Arbitrary units were used to measure level of H2O2 produced in the absence and/or in the presence of inhibitor.
The maximum demethylase activity of LSD1 was obtained in the absence of inhibitor and corrected for background fluorescence in the absence of LSD1. The Ki (IC50) of each inhibitor was estimated at half of the maximum activity.

With `N[C@H]1C[C@@H]1c1ccc(Nc2cccc(Cl)c2)nc1` (racemic) [Example 1, 5-((trans)-2-aminocyclopropyl)-N-(3-chlorophenyl)pyridin-2-amine hydrochloride], the Ki in experiment [1] is 1 to 100 nM; in experiment [2], 1000 to 40000 nM; in experiment [3], 100 to 1000 nM.

For the compound `N[C@H]1C[C@@H]1c1ccc(Nc2ccc(Cl)cc2)nc1` (racemic) [Example 2, 5-((trans)-2-aminocyclopropyl)-N-(4-chlorophenyl)pyridin-2-amine hydrochloride], the Ki is 1 to 100 nM in experiment [1], 1000 to 40000 nM in experiment [2] and 100 to 1000 nM in experiment [3].

Turning to `N[C@H]1C[C@@H]1c1ccc(Nc2ccc(C(F)(F)F)cc2)nc1` (racemic) [Example 3, 5-((trans)-2-aminocyclopropyl)-N-(4-(trifluoromethyl)phenyl)pyridin-2-amine hydrochloride], the figures for the Ki in experiment [1], in experiment [2] and in experiment [3] were 100 to 1000 nM, 1000 to 40000 nM and 100 to 1000 nM, respectively.

Turning to `COc1cccc(Nc2ccc([C@H]3C[C@@H]3N)cn2)c1` (racemic) [Example 4, 5-((trans)-2-aminocyclopropyl)-N-(3-methoxyphenyl)pyridin-2-amine hydrochloride], the values for the inhibitory constant (Ki) in experiment [1], in experiment [2] and in experiment [3] were 1000 to 40000 nM, 1000 to 40000 nM and 100 to 1000 nM, respectively.

`COc1ccc(Nc2ccc([C@H]3C[C@@H]3N)cn2)cc1` (racemic) [Example 5, 5-((trans)-2-aminocyclopropyl)-N-(4-methoxyphenyl)pyridin-2-amine hydrochloride]: the Ki was 100 to 1000 nM in experiment [1], 1000 to 40000 nM in experiment [2] and 100 to 1000 nM in experiment [3].

Consider `Cc1ccc(Nc2ccc([C@H]3C[C@@H]3N)cn2)cc1` (racemic) [Example 6, 5-((trans)-2-aminocyclopropyl)-N-p-tolylpyridin-2-amine hydrochloride], for which the Ki was 1000 to 40000 nM in experiment [1], 1000 to 40000 nM in experiment [2] and 100 to 1000 nM in experiment [3].

In the case of `Cc1cccc(Nc2ccc([C@H]3C[C@@H]3N)cn2)c1` (racemic) [Example 7, 5-((trans)-2-aminocyclopropyl)-N-m-tolylpyridin-2-amine hydrochloride], the inhibition constant Ki in experiment [1] is 100 to 1000 nM; in experiment [2], 1000 to 40000 nM; in experiment [3], 100 to 1000 nM.

Consider `N#Cc1cccc(Nc2ccc([C@H]3C[C@@H]3N)cn2)c1` (racemic) [Example 9, 3-(5-((trans)-2-aminocyclopropyl)pyridin-2-ylamino)benzonitrile hydrochloride], for which the figures for the Ki in experiment [1], in experiment [2] and in experiment [3] were 100 to 1000 nM, 1000 to 40000 nM and 100 to 1000 nM, respectively.

Regarding `NC(=O)c1cccc(Nc2ccc([C@H]3C[C@@H]3N)cn2)c1` (racemic) [Example 10, 3-(5-((trans)-2-aminocyclopropyl)pyridin-2-ylamino)benzamide hydrochloride], the Ki in experiment [1] was 1000 to 40000 nM; in experiment [2], 1000 to 40000 nM; in experiment [3], 100 to 1000 nM.

Turning to `N[C@H]1C[C@@H]1c1ccc(NCc2cccc(Cl)c2)nc1` (racemic) [Example 12, 5-((trans)-2-aminocyclopropyl)-N-(3-chlorobenzyl)pyridin-2-amine hydrochloride], the results for the Ki in experiment [1], in experiment [2] and in experiment [3] were 1000 to 40000 nM, 1000 to 40000 nM and 100 to 1000 nM, respectively.

Turning to `N[C@H]1C[C@@H]1c1ccc(NCc2ccc(C(F)(F)F)cc2)nc1` (racemic) [Example 15, 5-((trans)-2-aminocyclopropyl)-N-(4-(trifluoromethyl)benzyl)pyridin-2-amine hydrochloride], the Ki in experiment [1] is 1000 to 40000 nM; in experiment [2] it was 1000 to 40000 nM; in experiment [3] it was 100 to 1000 nM.

As to `Cc1cccc(CNc2ccc([C@H]3C[C@@H]3N)cn2)c1` (racemic) [Example 16, 5-((trans)-2-aminocyclopropyl)-N-(3-methylbenzyl)pyridin-2-amine hydrochloride], the figures for the Ki in experiment [1], in experiment [2] and in experiment [3] were 1000 to 40000 nM, 1000 to 40000 nM and 100 to 1000 nM, respectively.

On to `Cc1ccc(CNc2ccc([C@H]3C[C@@H]3N)cn2)cc1` (racemic) [Example 17, 5-((trans)-2-aminocyclopropyl)-N-(4-methylbenzyl)pyridin-2-amine hydrochloride], for which the Ki in experiment [1] was 1000 to 40000 nM; in experiment [2] it was 1000 to 40000 nM; in experiment [3], 100 to 1000 nM.

On to `N#Cc1cccc(CNc2ccc([C@H]3C[C@@H]3N)cn2)c1` (racemic) [Example 18, 3-((5-((trans)-2-aminocyclopropyl)pyridin-2-ylamino)methyl)benzonitrile hydrochloride], for which the Ki in experiment [1] is 1000 to 40000 nM; in experiment [2] it was 1000 to 40000 nM; in experiment [3] it was 100 to 1000 nM.
